Test results from patent US8828456B2, “Method of external skin application of composition containing red pine root extract” (Amorepacific Corporation, priority 2009, dated 2014).

Assay: Free radical removal activity (DPPH method)
Assay type: biochemical
Description: Specifically, each of the extracts obtained in Example 1 and Comparative Example 1 was diluted in ethanol to varying concentrations (0, 50, 100, 200, 300 and 400 μg/mL), and 10 μl of each dilution was added to each well of a 96-well plate. A solution of 5 mM DPPH in ethanol was added to each well to a total volume of 200 μl. The resulting solution was incubated at 37° C. for 30 minutes, and then measured at 520 nm using an ELISA reader (DI Biotech, Korea). Based on the measured absorbance, free radical removal activity was calculated according to the following Equation 1. As a positive control, vitamin C known to have excellent antioxidant activity was used. Radical removal activity (%)=absorbance of control-absorbance of sample/absorbance of control×100 Equation 1

O=C1O[C@H]([C@@H](O)CO)C(O)=C1O [Vitamin C, vitamin C]
Radical Removal Activity (%) (50 μg/mL): 30% | Radical Removal Activity (%) (100 μg/mL): 90% | Radical Removal Activity (%) (200 μg/mL): 91% | Radical Removal Activity (%) (300 μg/mL): 90% | Radical Removal Activity (%) (400 μg/mL): 90%
